Source: US20180243421A1, “IMMUNOSTIMULATING AGENT” (AJINOMOTO CO., INC., priority 2015, published 2018)

What was measured:
IL-4 = test: Th2 response: IL-4 production from lymph node cells of immunized mice restimulated with OVA; assay type: in vivo, BALB/c mice; conditions: Example 10; s.c. OVA 10 μg + 0.256 μmol in 5% αCD saline (Addavax 1:1); groin lymph node ten days later; 0.1-100 μg OVA, 40 hr, ELISA
Procedure: (§1) Ten days later, groin lymph node was collected from all mice of the above-mentioned (1) to (4), lymph node cells were isolated and cultured in 10% FBS-containing RPMI1640 medium. Thereto was added 0.1 μg, 1 μg, 10 μg, 100 μg of OVA, respectively, 40 hr later, cell supernatant was recovered, and IFN-γ and IL-4 in the supernatant were measured by ELISA.

IFN-γ = test: Th1 response: IFN-γ production from lymph node cells of immunized mice restimulated with OVA; assay type: in vivo, BALB/c mice; conditions: Example 10; s.c. OVA 10 μg + 0.256 μmol in 5% αCD saline (Addavax 1:1); groin lymph node ten days later; 0.1-100 μg OVA, 40 hr, ELISA
Procedure: as §1

[1] = Dispersibility study: turbidity in cyclodextrin-added saline; assay type: physicochemical; conditions: Example 11; SZ62 0.256 μmol in 1 mL; absorbance 650 nm, ratio to kaolinite
Procedure: N-hexadecanoylagmatine (SZ62: compound wherein group corresponding to R^7 in formula (II) is C15 alkyl group) (0.256 μmol) was separated in a 2 mL tube containing zilconia beads, 1 mL of 5% αCD-added saline or 10% 2-hydroxypropyl-β-cyclodextrin (hereinafter to be also simply referred to as HP-β-CD)-added saline was added and the mixture was stirred. Thereafter, the absorbance (OD Value=650 nm) was measured by a microplate reader, and the turbidity was calculated as an index of dispersibility. The measurement method of the turbidity was as follows.
Measurement Method of Turbidity
SZ62 (0.256 μmol) was dispensed to a 2 mL tube containing zirconia beads, 5% αCD-added saline or 10% HP-β-CD-added saline (1 mL) was added, and the mixture was vigorously stirred three times under conditions of one time for 3.15 seconds at 6000 rpm. The mixture was dispensed by 200 μL to a 96 well plate, and the absorbance (OD Value=650 nm) was measured by a microplate reader. As a control, kaolinite (1 mg) was dissolved in distilled water (1 L), and the absorbance (OD Value=650 nm) was measured by a microplate reader. The absorbance thereof (OD Value=650 nm) was defined to be turbidity: 1, and the turbidity of each sample was calculated from the ratio with the measured value of kaolinite.

## CCCCCCCCCCCCCCCC(=O)NC(=N)NCCCCN [SZ62, N-hexadecanoylagmatine]
IL-4
  IL-4 production from lymph node cells: did not show an increase
IFN-γ
  IFN-γ production from lymph node cells: increased in an OVA volume dependent manner
[1]
  turbidity after addition of 10% HP-β-CD-added saline and stirring, versus turbidity after addition of 5% αCD-added saline: significantly lower
